{"source": "patent US20220354852A1", "about": "“TARGETING WNT SIGNALING FOR IMPROVED GLIOMA IMMUNOTHERAPY” (CITY OF HOPE, priority 2021, published 2022)", "key": {"[1]": {"system": "PBT147 and PBT030 metabolic pathways", "test": "NanoString nCounter human metabolic panel of PBT147 and PBT030 cells", "assay_type": "cell-based", "protocol": "FIG. 8. NanoString analysis of human metabolic pathways after treatment with ICG-001. The profiling panel consists of 770 genes targeting six fundamental themes: neurotransmission, neuron-glia interactions, neuroplasticity, cell structure integrity, neuroinflammation, and metabolism. Each assay also includes six positive and eight negative RNA assay controls, plus ten mRNA housekeeping controls. RNA was hybridized with the Codeset from the gene panel at 65° C. for 16 h. The post-hybridization probe-target mixture were quantified using the nCounter Digital Analyzer, and all data analysis was performed on nSolver (NanoString Technologies) metabolic panel. All raw data was normalized with internal positive and negative controls to eliminate variability unrelated to the samples, then normalized to the selected housekeeping genes using Geometric Means methods.\nFIG. 17. (A-F) NanoString analysis of human metabolic pathways after treatment with ICG-001. The profiling panel consisted of 770 genes targeting six fundamental themes: neurotransmission, neuron-glia interactions, neuroplasticity, cell structure integrity, neuroinflammation, and metabolism. Each assay also included six positive and eight negative RNA assay controls and ten mRNA housekeeping controls. RNA was hybridized with the Codeset from the gene panel at 65° C. for 16 h. The post-hybridization probe-target mixture was quantified using the nCounter Digital Analyzer and all data analysis was performed using the nSolver metabolic panel (NanoString Technologies). All raw data was normalized with internal positive and negative controls to eliminate variability unrelated to the samples and then normalized to the selected housekeeping genes using Geometric Means methods. PBT147 and PBT030 cells were treated with ICG-001 at […] for 24 h (data not shown) or 72 h. Total RNA was collected for NanoString analysis from triplicate samples.\nPBT147 and PBT030 PBT cells were treated with ICG-001 (0, 5, or 10 μM) for 24-72 h. RNA expression was then analyzed using the NanoString nCounter platform (NanoString Technologies) by digitally detecting and counting in a single reaction without amplification using the NanoString human metabolic panel (City of Hope Molecular Pathology Core) (Geiss, Bumgarner et al. 2008). The data indicates change in a several metabolic markers and antigen presentation increased by PBT cells lines after treatment with ICG-001 at both time points. […] An increased p53 pathway and mitochondrial respiration was also observed at both time points and both cell lines.\nICG-001 Affects PBT tumor metabolism. The N-termini of the Kat3 coactivators, i.e. CBP and p300, provide a highly evolutionarily conserved hub to integrate multiple signaling cascades to coordinate cellular metabolism with the regulation of cellular status and function and specifically that p300/β-Catenin mediated transcription is required to enhance mitochondrial OXPHOS during the initiation of cellular differentiation (Hu et al. 2021, Thomas & Kahn 2016). Therefore, patient-derived GBM cell lines PBT147 and PBT030 lines were treated with ICG-001 (0, 5, or 10 μM) for 24 h or 72 h (FIG. 17 shown differences in both cells lines at 72 h). RNA isolated from the treated PBT cells was analyzed using the NanoString nCounter metabolic panel (NanoString Technologies). This approach digitally detects and counts gene transcripts in a single reaction without amplification (analysis done by City of Hope Molecular Pathology Core) (Geiss et al. 2008)."}, "[2]": {"system": "subcutaneous K-luc tumors", "test": "IHC of immune cells in syngeneic subcutaneous K-luc glioma tumors", "assay_type": "in vivo, mice (C57BL/6)", "conditions": "50 mg/kg/day by subcutaneous Alzet minipumps", "protocol": "FIG. 22. IHC analysis of immune cells in syngeneic models of subcutaneous glioma (K-Luc). (A-D) Mice bearing subcutaneous K-luc glioma tumors were treated with ICG-001 (50 mg/kg/day) for 7, 14, or 21 days. At the end of treatment, tumor was excised and IHC stained for CD3 cells to evaluate recruitment and patterns of CD3 distribution (red). (E) Quantification of tumor coverage using ImageJ for mouse CD3, CD4, CD8, and CD31 positive cells on days 0-21. Scale bars are S.D. of duplicate sections (n=4).\nAnimal studies. Syngeneic mice (C57BL/6) of 8-12 weeks of age were implanted with subcutaneous K-Luc tumors (n=8). 7 days after, when tumors became palpable and after confirmation of the tumor presence with BLU imaging, mice were implanted with Alzet minipumps with ICG001 (50 mg/kg/day). Pumps were continuously providing a daily dose of ICG-001. […]\nIHC was performed in COH pathology core. Tissues were scanned and quantification of CD4, CD8 and CD31 expression was done using ImageJ software.\nImage analysis. Images were processed and analyzed in the ImageJ (Schneider et al. 2012, also see Schneider, C. A., Rasband, W. S., Image J, U. S. National Institutes of Health, Bethesda, Md., USA, https://imagej.nih.gov/ij/, 1997-2018). […] A watershed filter was then applied to this processed mask and the ‘Analyze Particles’ tool with a 4 pixel minimum size was employed to quantify the cells identified. […]"}, "[3]": {"system": "CAR T cells (HER2 and mock)", "test": "Viability and cell count of CAR T / mock T cells treated with ICG-001", "assay_type": "cell-based", "conditions": "ICG001 0, 2.5, 5 uM for 24-72 h", "protocol": "FIG. 27. T cells treated with ICG001 2.5 and 5 μM for 24 or 72 h. (A) CAR Ts mock and HER2 from one donor and mock CARs derived from two additional donors were plated on 6-well format plates and treated with ICG001 at concentrations 0-5 μM for 24 or 72 h. Cells were collected from each well, counted, and viability was determined. (B, C) NanoString analysis of T cells treated with ICG-001 to determine concentration-dependent metabolic changes. […] (E) Correlation of differential gene expression in all T cell lines combined at concentration of 2.5 and 5 μM.\nFIG. 29 is a bar graph showing the results of studies where CAR T calls are treated with ICG001 for 24 hours according to some embodiments. To determine how treatment with ICG001 affects the T cells, the following method was employed. On day 1, CAR Ts HER 2 or Mock CARs derived from the same donor and additional 2 donor mock cells were plated on 6 well format plates and treated with ICG001 0 uM, 2.5 uM, 5 uM for 24-72 h. On day 5, cells were collected per well, counted, cell viability was determined [pellets were frozen]. […] Note: CAR T from 494 donor treated with ICG001 were used in cytotoxicity assay #19 in comparison with untreated 4949 CARs."}, "[4]": {"conditions": "ICG-001 0, 5, or 10 μM, 24 h or 72 h"}, "[5]": {"conditions": "ICG-001 0, 5, or 10 μM, both time points"}}, "note": "Entries after “also recorded” stand apart in the source; their conditions may differ."}
{"smiles": "O=C1[C@H](Cc2ccc(O)cc2)N2C(=O)CCN(C(=O)NCc3ccccc3)[C@H]2CN1Cc1cccc2ccccc12", "note": "[ICG-001]", "values": [{"measurement": "cell cycle-related genes", "setting": "[1]; [4]", "result": "Downregulation; also recorded: cell cycle decrease"}, {"measurement": "glutamine metabolism, ROS, mTOR, and p53 signaling", "setting": "[1]; [4]", "result": "Upregulation"}, {"measurement": "glycolysis", "setting": "[1]; [4]", "result": "decrease"}, {"measurement": "mitochondrial respiration", "setting": "[1]; [4]", "result": "increased"}, {"measurement": "antigen presentation", "setting": "[1]; [5]", "result": "increased"}, {"measurement": "immunosuppressive tryptophan/kynurenine metabolism", "setting": "[1]; [5]", "result": "concomitant decrease"}, {"measurement": "fatty acid oxidation", "setting": "[1]; all treated cell lines, all timepoints", "result": "decreased in all treated cell lines at all timepoints; also recorded: decreased in all treated cells and all timepoints"}, {"measurement": "CD3+, CD8+, and CD4+ cells infiltrating the tumor", "setting": "[2]; by day 14", "result": "increase in mouse host immune cells"}, {"measurement": "CD31 expression in tumor", "setting": "[2]; days 7, 14, 21", "result": "time-dependent increase"}, {"measurement": "CAR T cell viability and proliferation", "setting": "[3]", "result": "not toxic to T cells in vitro"}, {"measurement": "CAR T cell viability and proliferation", "setting": "[3]; listed as ICG001", "result": "not affecting Car T cell viability and proliferation"}]}
